What was measured:
Format in all cases: in vivo
[1] = test system: wheat (Triticum aestivum); experiment: Test B postemergence; settings: 13 to 15 days
How it was run: (§1)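 Post-treatment, species sat 13–15 days under greenhouse conditions before visual scoring against controls, 0 (no effect) through 100 (complete control). Application preemergence to sown seeds or postemergence at 1- to 4-leaf stage, using a non-phytotoxic solvent/surfactant formulation.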

[2] = test system: wild oat (Avena fatua); experiment: Test B postemergence; settings: 13 to 15 days
How it was run: as §1

[3] = test system: blackgrass (Alopecurus myosuroides); experiment: Test B postemergence; settings: 13 to 15 days
How it was run: as §1

[4] = test system: lambsquarters (Chenopodium album); experiment: Test B postemergence; settings: 13 to 15 days
How it was run: as §1

[5] = test system: cocklebur (Xanthium strumarium); experiment: Test B postemergence; settings: 13 to 15 days
How it was run: as §1

[6] = test system: barnyardgrass (Echinochloa crus-galli); experiment: Test B postemergence; settings: 13 to 15 days
How it was run: as §1

[7] = test system: pigweed (Amaranthus retroflexus); experiment: Test B postemergence; settings: 13 to 15 days
How it was run: as §1

[8] = test system: giant foxtail (Setaria faberii); experiment: Test B postemergence; settings: 13 to 15 days
How it was run: as §1

[9] = test system: morning glory (Ipomoea hederacea); experiment: Test B postemergence; settings: 13 to 15 days
How it was run: as §1

[10] = test system: Surinam grass (Brachiaria decumbens); experiment: Test B postemergence; settings: 13 to 15 days
How it was run: as §1

[11] = test system: crabgrass (Digitaria sanguinalis); experiment: Test B postemergence; settings: 13 to 15 days
How it was run: as §1

[12] = test system: velvetleaf (Abutilon theophrasti); experiment: Test B postemergence; settings: 13 to 15 days
How it was run: as §1

[13] = test system: corn (Zea mays); experiment: Test B postemergence; settings: 13 to 15 days
How it was run: as §1

[14] = test system: Sunflower; experiment: Test C preemergence; settings: Rate 250 g/ha, visual evaluation after 12 to 14 days
[15] = test system: smallflower flatsedge (Cyperus difformis); experiment: Test C flooded paddy test; settings: for Flatsedge plant response rating: Flooded Paddy, scale 0 to 100, 0 no effect, 100 complete control; for Plant response rating, Flatsedge: flooded paddy test, scale 0 to 100 (0 no effect, 100 complete control)
How it was run: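 Visual injury score, 0 (no effect) to 100 (complete control), relative to controls. Paddy plants treated at 2-leaf stage; greenhouse hold 12–14 d before rating.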

[16] = test system: Nightshade; experiment: Test C preemergence; settings: Rate 250 g/ha, visual evaluation after 12 to 14 days
[17] = test system: lambsquarters (Chenopodium album); experiment: Test B preemergence
How it was run: as §1

[18] = test system: cocklebur (Xanthium strumarium); experiment: Test B preemergence
How it was run: as §1

[19] = test system: barnyardgrass (Echinochloa crus-galli); experiment: Test B preemergence
How it was run: as §1

[20] = test system: pigweed (Amaranthus retroflexus); experiment: Test B preemergence
How it was run: as §1

[21] = test system: rice (Oryza saliva); experiment: Test B preemergence
How it was run: as §1

[22] = test system: giant foxtail (Setaria faberii); experiment: Test B preemergence
How it was run: as §1

[23] = test system: morning glory (Ipomoea hederacea); experiment: Test B preemergence
How it was run: as §1

[24] = test system: Surinam grass (Brachiaria decumbens); experiment: Test B preemergence
How it was run: as §1

[25] = test system: crabgrass (Digitaria sanguinalis); experiment: Test B preemergence
How it was run: as §1

[26] = test system: velvetleaf (Abutilon theophrasti); experiment: Test B preemergence
How it was run: as §1

[27] = test system: corn (Zea mays); experiment: Test B preemergence
How it was run: as §1

[28] = Rate 125 g/ha, scale 0 (no effect) to 100 (complete control)
[29] = Rate 500 g/ha, scale 0 to 100, 0 is no effect, 100 is complete control
[30] = Preemergence, Rate 500 g/ha, scale 0 to 100, 0 no effect, 100 complete control
[31] = preemergence, Rate 125 g/ha, scale of 0 to 100 where 0 is no effect and 100 is complete control, 13 to 15 days

How did the “Plant response rating, Wheat” value [1, 28] turn out when O=C1C(n2ccc(C3CCCCC3)n2)SCN1c1cccc(C(F)(F)F)c1 (stereo not shown) [Compound 52] was run?
The value was 0.

And the “Plant response rating, Wheat” value [1, 29]?
Its value is 0.

What about the “Plant response rating, Wild Oat” value [2, 28] of the same compound?
Its value is 0.

And the “Plant response rating, Wild Oat” value [2, 29]?
The value was 0.

And the “Plant response rating, Blackgrass” value [3, 28]?
The value was 0.

And the “Plant response rating, Blackgrass” value [3, 29]?
The value was 0.

And the “Plant response rating, Lambsquarters” value [4, 28]?
Its value is 0.

And the “Plant response rating, Lambsquarters” value [4, 29]?
The value was 0.

And the “Plant response rating, Cocklebur” value [5, 28]?
Its value is 0.

And the “Plant response rating, Cocklebur” value [5, 29]?
The value was 0.

What about the “Plant response rating, Barnyardgrass” value [6, 28] of the same compound?
Its value is 0.

What about the “Plant response rating, Barnyardgrass” value [6, 29] of the same compound?
The value was 0.

What about the “Plant response rating, Pigweed” value [7, 28] of the same compound?
The value was 0.

What about the “Plant response rating, Pigweed” value [7, 29] of the same compound?
Its value is 0.

And the “Plant response rating, Foxtail, Giant” value [8, 28]?
The value was 0.

And the “Plant response rating, Foxtail, Giant” value [8, 29]?
The value was 0.

And the “Plant response rating, Morningglory” value [9, 28]?
Its value is 0.

And the “Plant response rating, Morningglory” value [9, 29]?
Its value is 0.

And the “Plant response rating, Surinam grass” value [10, 28]?
The value was 0.

What about the “Plant response rating, Surinam grass” value [10, 29] of the same compound?
Its value is 0.

And the “Plant response rating, Crabgrass” value [11, 28]?
Its value is 0.

And the “Plant response rating, Crabgrass” value [11, 29]?
Its value is 0.

What about the “Plant response rating, Velvetleaf” value [12, 28] of the same compound?
Its value is 0.

And the “Plant response rating, Velvetleaf” value [12, 29]?
The value was 0.

And the “Plant response rating, Corn” value [13, 28]?
Its value is 20.

And the “Plant response rating, Corn” value [13, 29]?
Its value is 20.

And the “Plant response rating (0 to 100), Sunflower” value [14]?
Its value is 0.

And the “Flatsedge plant response rating” value ([15]; Rate 250 g/ha)?
Its value is 100.

And the “Flatsedge plant response rating” value ([15]; Rate 500 g/ha)?
The value was 100.

What about the “Plant response rating, Flatsedge” value ([15]; Rate 62 g/ha) of the same compound?
The value was 90.

And the “Plant response rating, Flatsedge” value ([15]; Rate 125 g/ha)?
Its value is 90.

And the “Plant response rating (0 to 100), Nightshade” value [16]?
Its value is 30.

What about the “Plant response rating, Lambsquarters” value [17, 30] of the same compound?
Its value is 100.

What about the “Plant response rating, Lambsquarters” value [17, 31] of the same compound?
The value was 100.

And the “Plant response rating, Cocklebur” value [18, 30]?
The value was 0.

And the “Plant response rating, Cocklebur” value [18, 31]?
The value was 0.

What about the “Plant response rating, Barnyardgrass” value [19, 30] of the same compound?
Its value is 100.

And the “Plant response rating, Barnyardgrass” value [19, 31]?
Its value is 0.

What about the “Plant response rating, Pigweed” value [20, 30] of the same compound?
Its value is 30.

And the “Plant response rating, Pigweed” value [20, 31]?
Its value is 0.

What about the “Plant response rating, Rice” value [21, 30] of the same compound?
The value was 0.

What about the “Plant response rating, Rice” value [21, 31] of the same compound?
The value was 0.

And the “Plant response rating, Foxtail, Giant” value [22, 30]?
The value was 100.

And the “Plant response rating, Foxtail, Giant” value [22, 31]?
Its value is 90.

What about the “Plant response rating, Morningglory” value [23, 30] of the same compound?
The value was 0.

What about the “Plant response rating, Morningglory” value [23, 31] of the same compound?
Its value is 0.

What about the “Plant response rating, Surinam grass” value [24, 30] of the same compound?
The value was 0.

What about the “Plant response rating, Surinam grass” value [24, 31] of the same compound?
The value was 0.

And the “Plant response rating, Crabgrass” value [25, 30]?
Its value is 100.

And the “Plant response rating, Crabgrass” value [25, 31]?
The value was 100.

What about the “Plant response rating, Velvetleaf” value [26, 30] of the same compound?
Its value is 0.

And the “Plant response rating, Corn” value [27, 30]?
Its value is 20.

And the “Plant response rating, Corn” value [27, 31]?
Its value is 0.

With CC(C)(C)c1ccn(C2CCN(c3ccc(Cl)c(Br)c3)C2=O)n1 (stereo not shown) [Compound 56] as the compound, how does the “Plant response rating, Wheat” value [1, 28] read?
Its value is 0.

What about the “Plant response rating, Wheat” value [1, 29] of the same compound?
Its value is 0.

What about the “Plant response rating, Wild Oat” value [2, 28] of the same compound?
Its value is 0.

And the “Plant response rating, Wild Oat” value [2, 29]?
Its value is 0.

And the “Plant response rating, Blackgrass” value [3, 28]?
Its value is 0.

And the “Plant response rating, Blackgrass” value [3, 29]?
Its value is 0.

What about the “Plant response rating, Lambsquarters” value [4, 28] of the same compound?
Its value is 80.

What about the “Plant response rating, Lambsquarters” value [4, 29] of the same compound?
Its value is 90.

What about the “Plant response rating, Cocklebur” value [5, 28] of the same compound?
The value was 0.

And the “Plant response rating, Cocklebur” value [5, 29]?
Its value is 0.

What about the “Plant response rating, Barnyardgrass” value [6, 28] of the same compound?
Its value is 0.

What about the “Plant response rating, Barnyardgrass” value [6, 29] of the same compound?
Its value is 0.

What about the “Plant response rating, Pigweed” value [7, 28] of the same compound?
Its value is 90.

What about the “Plant response rating, Pigweed” value [7, 29] of the same compound?
The value was 90.

And the “Plant response rating, Foxtail, Giant” value [8, 28]?
The value was 0.

And the “Plant response rating, Foxtail, Giant” value [8, 29]?
Its value is 0.

What about the “Plant response rating, Morningglory” value [9, 28] of the same compound?
The value was 0.

And the “Plant response rating, Morningglory” value [9, 29]?
The value was 10.

And the “Plant response rating, Surinam grass” value [10, 28]?
Its value is 0.

And the “Plant response rating, Surinam grass” value [10, 29]?
The value was 0.

And the “Plant response rating, Crabgrass” value [11, 28]?
Its value is 0.

What about the “Plant response rating, Crabgrass” value [11, 29] of the same compound?
Its value is 0.

And the “Plant response rating, Velvetleaf” value [12, 28]?
Its value is 0.

What about the “Plant response rating, Velvetleaf” value [12, 29] of the same compound?
The value was 0.

What about the “Plant response rating, Corn” value [13, 28] of the same compound?
Its value is 0.

What about the “Plant response rating, Corn” value [13, 29] of the same compound?
The value was 0.

What about the “Plant response rating (0 to 100), Sunflower” value [14] of the same compound?
The value was 0.

And the “Flatsedge plant response rating” value ([15]; Rate 250 g/ha)?
Its value is 90.

And the “Flatsedge plant response rating” value ([15]; Rate 500 g/ha)?
The value was 90.

What about the “Plant response rating, Flatsedge” value ([15]; Rate 62 g/ha) of the same compound?
Its value is 80.

And the “Plant response rating, Flatsedge” value ([15]; Rate 125 g/ha)?
The value was 80.

What about the “Plant response rating (0 to 100), Nightshade” value [16] of the same compound?
Its value is 0.

What about the “Plant response rating, Lambsquarters” value [17, 30] of the same compound?
The value was 100.

What about the “Plant response rating, Lambsquarters” value [17, 31] of the same compound?
Its value is 100.

What about the “Plant response rating, Cocklebur” value [18, 31] of the same compound?
Its value is 0.

What about the “Plant response rating, Barnyardgrass” value [19, 30] of the same compound?
Its value is 50.

What about the “Plant response rating, Barnyardgrass” value [19, 31] of the same compound?
Its value is 0.

What about the “Plant response rating, Pigweed” value [20, 30] of the same compound?
Its value is 100.

What about the “Plant response rating, Pigweed” value [20, 31] of the same compound?
The value was 100.

What about the “Plant response rating, Rice” value [21, 30] of the same compound?
Its value is 0.

What about the “Plant response rating, Rice” value [21, 31] of the same compound?
Its value is 0.

And the “Plant response rating, Foxtail, Giant” value [22, 30]?
The value was 90.

What about the “Plant response rating, Foxtail, Giant” value [22, 31] of the same compound?
Its value is 50.

And the “Plant response rating, Morningglory” value [23, 30]?
The value was 0.

What about the “Plant response rating, Morningglory” value [23, 31] of the same compound?
Its value is 0.

And the “Plant response rating, Surinam grass” value [24, 30]?
Its value is 30.

And the “Plant response rating, Surinam grass” value [24, 31]?
Its value is 30.

What about the “Plant response rating, Crabgrass” value [25, 30] of the same compound?
Its value is 100.

And the “Plant response rating, Crabgrass” value [25, 31]?
Its value is 30.

And the “Plant response rating, Velvetleaf” value [26, 30]?
Its value is 0.

And the “Plant response rating, Velvetleaf” value [26, 31]?
The value was 0.

And the “Plant response rating, Corn” value [27, 30]?
Its value is 0.

What about the “Plant response rating, Corn” value [27, 31] of the same compound?
Its value is 0.

Reference: US7138361B2, “Herbicidal heterocycles” (E. I. du Pont de Nemours and Company, priority 2000, dated 2006)
